Measured values reported in patent publication US11672786B2, “Methods of treating diseases associated with repeat instability” (The Hospital for Sick Children, priority 2016, dated 2023).
Several values for one entry are separate records, joined by “and”; a condition that tells them apart may be missing. Identical values can stand only once.

What was measured:
mouse striatum = test: histological study of mouse striatum, H&E staining; type: in vivo; settings: NA in saline injected into striatum
[1] = test system: HT1080-non transcribing (CAG)850 cells; test: small-pool PCR repeat instability, HT1080-non transcribing (CAG)850 cells; type: cell-based, human; settings: 50 uM NA, 30 days, repeat not transcribed
Method: The construction of the HT1080-(CAG)850 cell model was described previously (Sathasivam et al., 1997, Hum. Genet., 99:692-5). Briefly, HT1080 (ATCC) human fibrosarcoma cells were co-transfected with a plasmid (LC15-R) containing 800-850 (CTG)●(CAG) repeats (Nakatani et al., 2005, Nat. Chem. Biol., 1:39-43) and a plasmid encoding PhiC31 integrase. Transfection was performed with a Nucleofector (Lonza, Basel, Switzerland), and stably transfected clones were selected with puromycin. […] The HT1080-non-transcribing (CAG)850 cell model was established by transfecting a plasmid modified from pLC16 by inserting an additional SV40 polyadenylation signal downstream of the repeats (in addition to the original polyadenylation signals located upstream of the repeats), so that CAG/CTG repeats are floxed by transcription-terminator elements. The AttB-PhiC31 system has been widely used for single copy integration. […] The HT1080 model cells and an HD primary fibroblast cell line, GM09197 (Coriell Biorepository) with a large expanded allele of 180 CAG repeats and a non-expanded allele of 23 repeats (Sathasivam et al., 1997, Hum. Genet., 99:[…]), the HD primary fibroblast cell line, GM02191 (Coreill Biorepository) with an expanded allele of 43 CAG repeats and a non-expanded allele of 19 repeats, were cultured at 37° C. with 5% CO2 in Dulbecco's modified Eagle's medium supplemented with 10% fetal bovine serum and 1% penicillin/streptomycin. Cells were treated with or without continuous exposure to 50-μM NA for 30 days (HT1080 cells) or for 40 days (fibroblast cells). For experiments on non-proliferating cells, HT1080 cells were grown to confluence and then treated for the same period. WST-1 assay was performed according to the manufacturer's instructions (Roche, Basel, Switzerland). All cell lines were tested to be free of Mycoplasma. Three biological replicates were performed for each experiment.
Genomic DNA was extracted from HT1080-(CAG)850 clones and HD primary fibroblasts using the Gentra Puregene Cell Kit (Qiagen, Valencia, Calif.). The expanded (CTG)●(CAG) repeats were sized by small-pool PCR (sp-PCR) followed by Southern blot as described previously (Sathasivam et al., 1997, Hum. Genet., 99:692-5). For HT1080 models, small-pool PCR (spPCR) was performed with the input of 1.4-1.7 genome equivalents. The repeat size difference in the models is, at most, 3000 base-pairs, therefore, being strictly conservative, a bias toward amplifying the shorter allele can be possible, even under optimized PCR conditions described herein. For HD primary fibroblasts, sp-PCR & Southern blots were performed as described previously with slight modifications (Tome et al., 2013, PLoS Genet., 9:e1003280). Briefly, the PCR primers listed in Table 1 were used, and blots were hybridized with a DIG-labeled (CAG)7 locked nucleic acid probe (Nakamori et al. 2009, Neuromuscul. Disord., 19:759-62). At least 50 alleles were analyzed for each of the three experiments (more than 150 alleles for a total study). Repeat analyses are summarized in Table 2, compiled from complete small-pool-PCR datasets for each repetition of each experiment. For the histograms in FIGS. 4D, 4E, 10, 11, 5B, 5D, 5E, 14 and 15B, the Y-axis, “% of repeat population” was calculated by determining the proportion of >50 individual small-pool PCR reactions across the CAG repeat tract, that harbored a certain size of repeat product with a certain length. Cell clones were grown 30 or 40 days with or without NA (see, for example, Sathasivam et al., 1997, Hum. Genet., 99:692-5). Specifically, the histograms of repeat length distributions were from at least two different cell clones. Length distributions were determined as follows: Small-pool PCR followed by Southern blot for analysis of CAG/CTG repeat length.

[2] = single experiments Ex 1-3, cut-off ±25 repeats

naphthyridine-azaquinolone
brain morphology (mouse striatum): did not alter brain morphology | % Contraction ([1]; Total): 21.8% | % Expansion ([1]; Total): 12.1% | % Unchanged ([1]; Total): 66.1% | Average Change of Repeat Size ([1]; Total): −55.9 number of repeats | % Unchanged ([1]; single experiments Ex 1-3): 66.7% and 62.5% and 69.1% | % Contraction [1, 2]: 22.2% and 21.4% and 21.8% | % Expansion [1, 2]: 11.1% and 16.1% and 9.1%
